According to patent publication US20020137154A1, “Methods for improving cell growth and alcohol production during fermentation” (priority 2000, published 2002):

Key:
Type in all cases: cell-based
[1] = system: recombinant Escherichia coli KO11; test: Batch fermentation of E. coli KO11 in 1% CSL medium and xylose with nutrient additives: ethanol production and cell growth; conditions: additive 2 g/L unless indicated; for activity at 2000 µg/mL: Escherichia coli
Description: (§1) Two types of media were tested: 1% CSL and Luria broth (LB). Each contained 97 g of either xylose or glucose per liter. Luria Broth consists of, per liter: 10 g Difco® Tryptone, 5 g Difco® Yeast Extract and 5 g NaCl. The 1% CSL medium consists of Corn Steep Liquor (1% w/v) plus mineral salts (mineral salts per liter: 1 g of KH2PO4. 0.5 g of K2HPO4, 3.1 g of (NH4)2SO4, 0.4 g of MgCl2·6H2), and 20 mg FeCl3·6H2O).
(§2) Luria Broth was prepared by autoclaving a 2× nutrient stock containing, per liter: 20 g Difco® Tryptone, 10 g Difo® Yeast Extract, and 10 g NaCl. Sugars (xylose or glucose) were autoclaved separately. A 1% CSL medium was prepared as follows: Commercial Corn Steep Liquor (CSL; 50% dry weight/50% water) was diluted with tap water to make a 20X stock containing 100 g dry weight of Corn Steep Liquor/L and was adjusted to pH 7.2 with NaOH (50%). After sterilization by autoclaving, the 20X CSL stock was clarified by centrifugation at 5000×g for 10 minutes. Magnesium was added as a 100× stock solution (40 g/L MgCl2·6H2O). Iron was added as a 1000× stock solution made by dissolving 20 g FeCl3·6H2O in 175 mL of HCl and adjusting to 1 L with sterile water. Nitrogen, sulfur and phosphorus were added using a 20× stock solution containing the following (per liter): 20 g of KH2PO4, 10 g of K2HPO4 and 62 g of (NH4)2SO4. Stock solutions containing minerals were sterilized separately by autoclaving. Final media was prepared by adding 750 mL of water to 1 L bottle containing 100 g of xylose or glucose.
Inocula were grown in same media used for fermentation and were prepared as follows. Three colonies from a fresh plate were used to inoculate seed cultures: 250-mL flask containing 100 mL medium. These cultures were grown with agitation (120 rpm) for 12-16 hours at 35° C. to a final OD550nm of approximately 2.0-2.5. Cells were harvested by centrifugation at 5000×g for 5 minutes, and resuspended in fresh media to an OD550nm of 0.1. The resulting suspension was distributed into 500-mL beakers containing 345 ml each of fermentation medium. Acetaldehyde was added as indicated. Batch fermentations (35° C., 100 rpm) were maintained at pH 6.5 by the automatic addition of 2N KOH. Cell mass, ethanol, and base addition (2N KOH) were recorded during 96 hours of incubation. […]
(§3) Additives (e.g., as listed in Table 1) were dissolved in 5 mL di-H2O. Solutions with pH lower than 5 were neutralized to pH 6.5 with 2N KOH. Nutritional supplements were then filter-sterilized (0.45 μm filter disk) directly into the fermentation vessel containing the culture. The final concentration of all additives in the culture medium was 2 g/L unless otherwise indicated.
(§4) Cell mass was estimated by measuring OD550nm using Baush & Lomb® Spectronic 70 spectrophotometer. […] Ethanol was measured by gas chromatography using a Varian® 3400 CX gas chromatograph with 1-propanol as an internal standard.
(§5) Tables 1, 3, and 5 show time to completion of fermentation, ethanol production, and volumetric productivity of the fermentation for all concentrations of the compound and the control. Maximum ethanol production is shown in grams/liter (g/L). The ethanol yield is shown in grams of ethanol/grams of added sugar. Maximum volumetric productivity is shown in grams ethanol/(liter)(hour). The average productivity is calculated form the start of fermentation to the completion of fermentation is grams ethanol/(liter)hour).
Tables 2, 4, and 6 show the initial growth of the cells (OD taken after the first 24 hours of fermentation) and the maximum cell density (the time which culture reaches the maximum OD value). […]

[2] = system: recombinant Escherichia coli KO11; test: Batch fermentation of E. coli KO11 in Luria broth and xylose with nutrient additives: ethanol production and cell growth; conditions: LB+xylose
Description: as §1, §2
(§6) Inocula were grown in same media used for fermentation and were prepared as follows. Three colonies from a fresh plate were used to inoculate seed cultures: 250-mL flask containing 100 mL medium. These cultures were grown with agitation (120 rpm) for 12-16 hours at 35° C. to a final OD550nm of approximately 2.0-2.5. Cells were harvested by centrifugation at 5000×g for 5 minutes, and resuspended in fresh media to an OD550nm of 0.1. The resulting suspension was distributed into 500-mL beakers containing 345 ml each of fermentation medium. Acetaldehyde was added as indicated. Batch fermentations (35° C., 100 rpm) were maintained at pH 6.5 by the automatic addition of 2N KOH. Cell mass, ethanol, and base addition (2N KOH) were recorded during 96 hours of incubation.
(§7) Equivalent amounts of distilled water were added instead of the acetaldehyde in control experiments.
as §3, §4, §5
(§8) Tables 2, 4, and 6 show the initial growth of the cells (OD taken after the first 24 hours of fermentation) and the maximum cell density (the time which culture reaches the maximum OD value).
(§9) Acetaldehyde was added to the fermentation medium at five different concentrations and time points. […] Where two additions are indicated, the first volume was added at the start of fermentation and the second was added after 8 hours of fermentation.

[3] = system: recombinant Escherichia coli KO11; test: Batch fermentation of E. coli KO11 in 1% CSL medium and glucose with nutrient additives: ethanol production and cell growth; conditions: additive 2 g/L unless indicated; for activity at 2000 µg/mL: Escherichia coli
Description: as §1, §2, §6, §7, §3, §4, §5, §8, §9

[4] = additive 2 g/L unless indicated

With `CC(=O)C(=O)O` [Pyruvate, pyruvate] the “Ethanol Production Maximum” value ([1]; 1% CSL+xylose) was 44.42 g/L, the Ethanol yield ([1]; 1% CSL+xylose) was 0.457 grams of ethanol/grams of added sugar and the “Initial Growth (OD @ 24 h) OD” value ([1]; 1% CSL+xylose) was 4.11 OD. The “Maximum Cell Density Time” value ([1]; 1% CSL+xylose) was 96 h, the “Volumetric Productivity Average” value ([1]; 1% CSL+xylose) was 0.617 grams ethanol/(liter)(hour) and the “Volumetric Productivity Maximum” value ([1]; 1% CSL+xylose) was 0.792 grams ethanol/(liter)(hour). For the same compound, the activity at 2000 µg/mL ([1]; 24 h, 1% CSL+xylose, read-out: Initial Growth (OD @ 24 h) % Control) was 201%, the activity at 2000 µg/mL ([1]; read-out: Ethanol Production Maximum % Control, 1% CSL+xylose) was 148% and the activity at 2000 µg/mL ([1]; read-out: Volumetric Productivity Average % Control, 1% CSL+xylose) was 197%. For the same compound, the activity at 2000 µg/mL ([1]; read-out: Volumetric Productivity Maximum % Control, 1% CSL+xylose) was 215%, the activity at 2000 µg/mL ([1]; 1% CSL+xylose, read-out: Maximum Cell Density % Control) was 238% and the “Ethanol Production Maximum” value ([2]; 2 g) was 44.35 g/L. For the same compound, the “Ethanol Production Maximum % Control” value ([2]; 2 g) was 102.96%, the Ethanol yield ([2]; 2 g) was 0.457 grams of ethanol/grams of added sugar and the “Initial Growth (OD at 24 h) % Control” value ([2]; 2 g) was 113.09%. The “Initial Growth (OD at 24 h) OD” value ([2]; 2 g) was 11.30 OD, the “Maximum Cell Density % Control” value ([2]; 2 g) was 102.29% and the “Maximum Cell Density OD” value ([2]; 2 g) was 11.30 OD. For the same compound, the “Maximum Cell Density Time” value ([2]; 2 g) was 24 h, the Time to completion ([2]; 2 g) was 48 h and the “Volumetric Productivity Average” value ([2]; 2 g) was 0.924 grams ethanol/(liter)(hour). For the same compound, the “Volumetric Productivity Average % Control” value ([2]; 2 g) was 102.96%, the “Volumetric Productivity Maximum” value ([2]; 2 g) was 1.284 grams ethanol/(liter)(hour) and the “Volumetric Productivity Maximum % Control” value ([2]; 2 g) was 111.47%. The “Ethanol Production Maximum” value ([2]; 4 g) was 45.13 g/L, the “Ethanol Production Maximum % Control” value ([2]; 4 g) was 104.76% and the Ethanol yield ([2]; 4 g) was 0.465 grams of ethanol/grams of added sugar. For the same compound, the “Initial Growth (OD at 24 h) % Control” value ([2]; 4 g) was 114.64%, the “Initial Growth (OD at 24 h) OD” value ([2]; 4 g) was 11.45 OD and the “Maximum Cell Density % Control” value ([2]; 4 g) was 105.48%. The “Maximum Cell Density OD” value ([2]; 4 g) was 11.65 OD, the “Maximum Cell Density Time” value ([2]; 4 g) was 48 h and the Time to completion ([2]; 4 g) was 48 h. For the same compound, the “Volumetric Productivity Average” value ([2]; 4 g) was 0.940 grams ethanol/(liter)(hour), the “Volumetric Productivity Average % Control” value ([2]; 4 g) was 104.76% and the “Volumetric Productivity Maximum” value ([2]; 4 g) was 1.166 grams ethanol/(liter)(hour). For the same compound, the “Volumetric Productivity Maximum % Control” value ([2]; 4 g) was 101.27%, the “Ethanol Production Maximum” value ([3]; 1% CSL+glucose) was 42.35 g/L and the Ethanol yield ([3]; 1% CSL+glucose) was 0.436 grams of ethanol/grams of added sugar. For the same compound, the “Initial Growth (OD @ 24 h) OD” value ([3]; 1% CSL+glucose) was 3.46 OD, the “Maximum Cell Density OD” value ([3]; 1% CSL+glucose) was 3.83 OD and the “Volumetric Productivity Average” value ([3]; 1% CSL+glucose) was 0.441 grams ethanol/(liter)(hour). The “Volumetric Productivity Maximum” value ([3]; 1% CSL+glucose) was 0.663 grams ethanol/(liter)(hour), the activity at 2000 µg/mL ([3]; 24 h, 1% CSL+glucose, read-out: Initial Growth (OD @ 24 h) % Control) was 129% and the activity at 2000 µg/mL ([3]; read-out: Ethanol Production Maximum % Control, 1% CSL+glucose) was 114%. The activity at 2000 µg/mL ([3]; read-out: Volumetric Productivity Average % Control, 1% CSL+glucose) was 114%, the activity at 2000 µg/mL ([3]; read-out: Volumetric Productivity Maximum % Control, 1% CSL+glucose) was 129% and the activity at 2000 µg/mL ([3]; 1% CSL+glucose, read-out: Maximum Cell Density % Control) was 142%.
With `O=C(O)CCC(=O)C(=O)O` [a-KG, α-ketoglutarate] the “Ethanol Production Maximum” value ([1]; 1% CSL+xylose) was 42.32 g/L, the “Ethanol Production Maximum % Control” value ([1]; 1% CSL+xylose) was 140.70% and the Ethanol yield ([1]; 1% CSL+xylose) was 0.436 grams of ethanol/grams of added sugar. For the same compound, the “Initial Growth (OD @ 24 h) % Control” value ([1]; 1% CSL+xylose) was 173.77%, the “Initial Growth (OD @ 24 h) OD” value ([1]; 1% CSL+xylose) was 3.55 OD and the Time to completion ([1]; 1% CSL+xylose) was 72 h. For the same compound, the “Ethanol Production Maximum” value [2, 4] was 42.47 g/L, the Ethanol yield [2, 4] was 0.437 grams of ethanol/grams of added sugar and the “Initial Growth (OD at 24 h) % Control” value [2, 4] was 102.79%. The “Initial Growth (OD at 24 h) OD” value [2, 4] was 10.27 OD, the Time to completion [2, 4] was 48 h and the “Ethanol Production Maximum” value ([3]; 1% CSL+glucose) was 40.33 g/L. The “Ethanol Production Maximum % Control” value ([3]; 1% CSL+glucose) was 109.03%, the Ethanol yield ([3]; 1% CSL+glucose) was 0.415 grams of ethanol/grams of added sugar and the “Initial Growth (OD @ 24 h) % Control” value ([3]; 1% CSL+glucose) was 123.05%. The “Initial Growth (OD @ 24 h) OD” value ([3]; 1% CSL+glucose) was 3.29 OD and the Time to completion ([3]; 1% CSL+glucose) was 72 h.
